Data on 7 compounds can be found in patent US20250368666A1, “INDAZOLE COMPOUNDS” (TYRA BIOSCIENCES, INC., priority 2022, published 2025).

Experiment [1] relates to RT112/84 cell line (FGFR3-fusion). Briefly: Cancer cell line cell viability assay (Cell Titer-Glo), 72 hr. Type of experiment: cell-based. To be noted: Homo sapiens, RT112/84, RT112/84 cell line (FGFR3-fusion). The source says:
(§1) Experimental Purpose: To detect the change of intracellular ATP by Cell Titer-Glo® and to evaluate the inhibitory effect of the compounds on cancer cell lines by determining the in vitro IC50 value of the compounds.
(§2) Cell Titer-Glo® 2.0 Luminescent cell viability assay reagent was purchased from Promega (Madison, WI). KG-1, KATO-III, and MDA-MB-453 cell lines were purchased from American Type Culture Collection (Manassas, VA). RT112/84 cell line was purchased from Millipore-Sigma (St. Louis, MO). HuH7 cells were purchased from Seikisui Xenotech (Kansas City, KS). RT112/84 and MDA-MB-453 cells were cultured in RPMI1640 media supplemented with 10% fetal bovine serum. KG-1 and KATO-III cell lines were cultured in IMDM media supplemented with 20% FBS. HuH7 cells were cultured in IMDM media supplemented with 10% FBS. Cultures were maintained at 37° C. in a humidified atmosphere of 5% CO2 and 95% air.
(§3) Cell Viability Assay Procedure: Cells were plated in 96-well clear bottom/white plates (Corning #3903) at a range of densities depending on the optimal assay window (5,000-20,000 cells/well in […] of media), incubated overnight. The next day, test compound DMSO stock solutions were made at 10 mM and […] final concentration. Compounds were then added to cells in a 9-dose, 4-fold dilution series starting at 3 μM with an HP 300e Digital Dispenser (each dose was applied in triplicate). DMSO was backfilled to each well up to 301 nL total volume of test compound+DMSO, and a total of 301 nL DMSO was added to a control/no test compound well in triplicate. The cells in cell culture plates were incubated with the compounds at 37° C. and 5% CO2 for 72 hours-120 hours depending on the cell line. Then 50 μl of Cell Titer Glo 2.0 reagent was added to each well of the cell culture plates. The contents were covered from light and mixed on an orbital shaker at room temperature for minimum of 10 min. Luminescence was recorded by a Clariostar Plus Microplate Reader (BMG Labtech, Cary, NC). Cells were assessed as a percentage of DMSO only treated control cells. Curves were plotted and IC50 values were calculated using the GraphPad Prism 9 program based on a sigmoidal dose-response equation (log (inhibitor) vs. response—Variable slope, 4-parameter).
(In general: Cellular ATP, detected with luciferase, serves as a proxy for viable cell number.)

The subject of experiment [2] is KG-1 cell line (FGFR 1-fusion). The description is as above. Format: cell-based. To be noted: Homo sapiens, KG-1, KG-1 cell line (FGFR1-fusion).
Excerpt: as §1, §2, §3

The test system of experiment [3] is KATO-III cell line (FGFR2 amplification). The description is as above. Format: cell-based. To be noted: Homo sapiens, KATO III.
Excerpt: as §1, §2, §3

Another experiment deals with T1, FGFR4 (Homo sapiens, UniProt P22455).
T1 construct: made in house; host or cells: E. coli (BL21-derived), T7 phage
Briefly: Kinase binding assay (kinase-tagged T7 phage, affinity beads, qPCR), Kd. To be noted: read-out: FGFR4 (Kd nM). In outline:
(§4)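 T7 phage displaying each kinase, grown in a BL21-derived E. coli host at 32° C until lysis, competed with test compound for biotinylated ligand immobilised on streptavidin beads. Bead-bound kinase was eluted and quantified by qPCR. Kd came from an 11-point 3-fold dilution series fitted to the Hill equation with slope fixed at −1.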
On the technique in general: Quantitative PCR measures a nucleic acid by following its amplification.

The next experiment addresses T2, FGFR3 (V555M) (Homo sapiens, UniProt P22607, V555M).
T2 construct: made in house; host or cells: E. coli (BL21-derived), T7 phage
The experiment is described as above. To be noted: V555M mutant; read-out: FGFR3 (V555M) (Kd nM). In outline:
as §4

The target in the next experiment is T3, FGFR3 (Homo sapiens, UniProt P22607).
T3 construct: made in house; host or cells: E. coli (BL21-derived), T7 phage
The experiment is described as above. To be noted: read-out: FGFR3 (Kd nM). In outline: as §4

For a further experiment, the target named is T4, FGFR2 (Homo sapiens, UniProt P21802).
T4 construct: made in house; host or cells: E. coli (BL21-derived), T7 phage
The description is as above. To be noted: read-out: FGFR2 (Kd nM). In outline:
as §4

The next experiment has as its target T5, FGFR1 (Homo sapiens, UniProt P11362).
T5 construct: made in house; host or cells: E. coli (BL21-derived), T7 phage
The description is as above. To be noted: read-out: FGFR1 (Kd nM). A digest of the protocol:
as §4

Where [4] appears, read: kinase binding assay, 11-point 3-fold dilution series.

What is called IC50 is the concentration needed to halve the response being measured. A lower IC50 goes with greater potency. A word on the Kd: it is the free concentration of one partner at which half of the binding sites on the other are occupied at equilibrium, for simple one-to-one binding.

Read-outs that look alike come from different tables or passages of the source. Where only a bound is given, the exact number is not on record here.

T1 sequence (P22455 22-802): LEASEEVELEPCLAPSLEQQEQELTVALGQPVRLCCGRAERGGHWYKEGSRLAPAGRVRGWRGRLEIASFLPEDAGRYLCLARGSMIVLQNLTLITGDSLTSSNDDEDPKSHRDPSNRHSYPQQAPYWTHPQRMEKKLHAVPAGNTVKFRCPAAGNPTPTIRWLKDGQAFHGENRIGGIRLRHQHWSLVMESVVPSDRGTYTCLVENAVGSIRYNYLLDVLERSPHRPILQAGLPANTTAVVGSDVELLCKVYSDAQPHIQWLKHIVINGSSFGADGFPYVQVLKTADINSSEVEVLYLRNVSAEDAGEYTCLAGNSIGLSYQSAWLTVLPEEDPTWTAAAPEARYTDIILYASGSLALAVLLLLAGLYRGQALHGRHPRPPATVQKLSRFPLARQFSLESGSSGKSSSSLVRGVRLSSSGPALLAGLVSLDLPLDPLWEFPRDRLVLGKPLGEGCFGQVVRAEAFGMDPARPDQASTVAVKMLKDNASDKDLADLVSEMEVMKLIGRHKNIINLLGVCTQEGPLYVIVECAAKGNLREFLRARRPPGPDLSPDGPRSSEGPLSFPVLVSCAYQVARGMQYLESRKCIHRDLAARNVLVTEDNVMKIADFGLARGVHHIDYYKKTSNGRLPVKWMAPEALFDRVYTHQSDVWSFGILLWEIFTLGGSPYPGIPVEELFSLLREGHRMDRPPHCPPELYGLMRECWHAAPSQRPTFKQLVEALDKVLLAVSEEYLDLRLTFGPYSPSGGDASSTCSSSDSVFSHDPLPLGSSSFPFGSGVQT
T5 sequence (P11362 22-822): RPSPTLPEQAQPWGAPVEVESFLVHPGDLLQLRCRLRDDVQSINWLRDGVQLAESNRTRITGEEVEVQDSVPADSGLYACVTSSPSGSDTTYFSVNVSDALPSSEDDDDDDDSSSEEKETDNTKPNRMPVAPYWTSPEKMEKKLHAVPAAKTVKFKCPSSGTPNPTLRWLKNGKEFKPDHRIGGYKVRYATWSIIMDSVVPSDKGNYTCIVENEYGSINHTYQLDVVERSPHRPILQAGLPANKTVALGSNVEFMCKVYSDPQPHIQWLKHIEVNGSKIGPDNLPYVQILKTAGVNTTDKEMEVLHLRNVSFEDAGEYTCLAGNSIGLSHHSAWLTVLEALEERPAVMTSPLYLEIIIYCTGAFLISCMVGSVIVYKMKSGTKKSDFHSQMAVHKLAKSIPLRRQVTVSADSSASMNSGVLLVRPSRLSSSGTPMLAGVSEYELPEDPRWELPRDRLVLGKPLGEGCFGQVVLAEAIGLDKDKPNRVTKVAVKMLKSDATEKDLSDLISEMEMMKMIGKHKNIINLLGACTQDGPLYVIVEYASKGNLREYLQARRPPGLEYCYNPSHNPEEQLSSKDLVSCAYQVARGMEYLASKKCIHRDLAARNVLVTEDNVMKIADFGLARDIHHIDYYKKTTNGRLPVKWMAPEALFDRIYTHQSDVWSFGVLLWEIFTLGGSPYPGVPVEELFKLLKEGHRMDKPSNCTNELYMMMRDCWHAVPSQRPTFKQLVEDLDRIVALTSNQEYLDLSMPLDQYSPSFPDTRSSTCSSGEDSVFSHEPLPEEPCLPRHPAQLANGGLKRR
T2 sequence (P22607 23-806 V555M): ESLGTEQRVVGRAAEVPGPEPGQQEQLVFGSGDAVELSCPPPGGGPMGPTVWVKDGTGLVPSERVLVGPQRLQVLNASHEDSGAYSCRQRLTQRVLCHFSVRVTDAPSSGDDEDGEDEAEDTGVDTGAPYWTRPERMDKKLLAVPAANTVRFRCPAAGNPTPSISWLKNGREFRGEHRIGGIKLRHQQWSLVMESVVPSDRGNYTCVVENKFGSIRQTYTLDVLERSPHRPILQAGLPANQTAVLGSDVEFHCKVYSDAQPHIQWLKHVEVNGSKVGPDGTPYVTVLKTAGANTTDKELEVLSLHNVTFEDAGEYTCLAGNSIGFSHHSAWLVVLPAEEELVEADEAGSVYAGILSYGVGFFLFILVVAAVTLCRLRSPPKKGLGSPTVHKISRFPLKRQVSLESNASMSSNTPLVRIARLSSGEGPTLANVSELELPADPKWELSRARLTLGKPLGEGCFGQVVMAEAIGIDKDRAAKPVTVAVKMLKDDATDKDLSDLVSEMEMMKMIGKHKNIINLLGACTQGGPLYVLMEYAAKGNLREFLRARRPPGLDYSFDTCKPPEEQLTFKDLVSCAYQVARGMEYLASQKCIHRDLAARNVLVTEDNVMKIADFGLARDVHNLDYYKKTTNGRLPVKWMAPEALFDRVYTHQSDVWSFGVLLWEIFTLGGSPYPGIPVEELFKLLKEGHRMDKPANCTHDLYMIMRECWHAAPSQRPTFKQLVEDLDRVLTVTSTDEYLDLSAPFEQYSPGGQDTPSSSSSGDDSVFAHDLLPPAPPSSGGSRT
T3 sequence (P22607 23-806): as the sequence (P22607 23-806 V555M) above, with M533V counted along it
T4 sequence (P21802 22-821): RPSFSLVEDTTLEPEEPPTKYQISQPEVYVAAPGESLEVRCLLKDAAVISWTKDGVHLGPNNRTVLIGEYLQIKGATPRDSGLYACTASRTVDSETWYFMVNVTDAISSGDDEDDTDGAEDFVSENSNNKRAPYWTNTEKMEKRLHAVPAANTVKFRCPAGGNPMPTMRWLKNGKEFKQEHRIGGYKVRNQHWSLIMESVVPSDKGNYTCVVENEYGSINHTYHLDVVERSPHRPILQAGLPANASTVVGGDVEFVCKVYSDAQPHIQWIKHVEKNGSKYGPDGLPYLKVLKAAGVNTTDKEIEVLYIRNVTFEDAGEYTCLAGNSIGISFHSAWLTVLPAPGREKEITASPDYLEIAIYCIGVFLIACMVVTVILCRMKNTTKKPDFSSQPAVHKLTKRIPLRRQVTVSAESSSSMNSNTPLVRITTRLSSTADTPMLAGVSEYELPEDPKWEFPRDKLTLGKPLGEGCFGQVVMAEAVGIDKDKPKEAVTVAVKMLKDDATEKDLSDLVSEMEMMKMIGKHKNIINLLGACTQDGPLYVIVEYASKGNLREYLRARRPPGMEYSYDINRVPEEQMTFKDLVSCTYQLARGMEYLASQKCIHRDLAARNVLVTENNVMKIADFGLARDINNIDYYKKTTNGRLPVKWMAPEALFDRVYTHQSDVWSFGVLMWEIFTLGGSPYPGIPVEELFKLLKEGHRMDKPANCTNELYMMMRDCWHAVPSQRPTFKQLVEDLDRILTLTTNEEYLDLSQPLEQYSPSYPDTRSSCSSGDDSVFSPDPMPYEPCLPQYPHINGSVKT

As to `CNC1(C)CN(c2ccc(-c3n[nH]c4cc(F)c(O[C@H](C)c5c(Cl)cncc5Cl)cc34)cn2)C1` [Example 59, 1-[5-[5-[(1R)-1-(3,5-dichloro-4-pyridyl)ethoxy]-6-fluoro-1H-indazol-3-yl]-2-pyridyl]-N,3-dimethyl-azetidin-3-amine], the IC50 lay in the range of 0.1 to 50 nM in experiment [1], 200 to 1000 nM in experiment [2] and 200 to 1000 nM in experiment [3]. Moreover, the Kd on FGFR4, at FGFR3 (V555M), on FGFR3, on FGFR2 and at FGFR1 was 1 to 50 nM each time.
On to `C[C@@H](Oc1cc2c(-c3cnc(N4CC5(CC5)C4)nc3)n[nH]c2cc1F)c1c(Cl)cncc1Cl` [Example 60, 3-[2-(5-azaspiro[2.3]hexan-5-yl)pyrimidin-5-yl]-5-[(1R)-1-(3,5-dichloro-4-pyridyl)ethoxy]-6-fluoro-1H-indazole], for which the IC50 in experiment [1] was 50 to 200 nM; in experiment [2], more than 1000 nM; in experiment [3], more than 1000 nM. Moreover, the Kd at FGFR4 was 1 to 50 nM; at FGFR3 (V555M), 1 to 50 nM; at FGFR3, 1 to 50 nM; on FGFR2, 300 to 1000 nM; on FGFR1, 50 to 300 nM.
On to `C[C@@H](Oc1ccc2[nH]nc(-c3ccc(N4CC(C)(NC5CCC5)C4)nc3)c2c1)c1c(Cl)cncc1Cl` [Example 63, (R)-N-cyclobutyl-1-(5-(5-(1-(3,5-dichloropyridin-4-yl)ethoxy)-1H-indazol-3-yl)pyridin-2-yl)-3-methylazetidin-3-amine], for which the figures for the IC50 in experiment [1], in experiment [2] and in experiment [3] were 0.1 to 50 nM, 50 to 200 nM and 0.1 to 50 nM, respectively. Further, the equilibrium dissociation constant (Kd) at FGFR4, at FGFR3 (V555M), at FGFR3, on FGFR2 and at FGFR1 was 1 to 50 nM throughout.
As to `C[C@@H](Oc1ccc2[nH]nc(-c3ccc(N4CC(C)(NC5COC5)C4)nc3)c2c1)c1c(Cl)cncc1Cl` [Example 64, (R)-1-(5-(5-(1-(3,5-dichloropyridin-4-yl)ethoxy)-1H-indazol-3-yl)pyridin-2-yl)-3-methyl-N-(oxetan-3-yl)azetidin-3-amine], the half-maximal inhibitory concentration (IC50) in experiment [1], in experiment [2] and in experiment [3] was 0.1 to 50 nM in each case. Besides, the Kd on FGFR4, at FGFR3 (V555M), at FGFR3, at FGFR2 and on FGFR1 was 1 to 50 nM in each case.
For `COc1cc2[nH]nc(-c3cnc(N4CC5(CC5)C4)c(C#N)c3)c2cc1O[C@H](C)c1c(Cl)cncc1Cl` [Example 65, 2-(5-azaspiro[2.3]hexan-5-yl)-5-[5-[(1R)-1-(3,5-dichloro-4-pyridyl)ethoxy]-6-methoxy-1H-indazol-3-yl]pyridine-3-carbonitrile], the IC50 in experiment [1] is 0.1 to 50 nM; in experiment [2] it was 200 to 1000 nM; in experiment [3] it was more than 1000 nM. The Kd at FGFR2 was in the range of 1 to 50 nM.
Regarding `C[C@@H](Oc1ccc2[nH]nc(-c3ccc(N4CC(N)(c5ccnn5C)C4)nn3)c2c1)c1c(Cl)cncc1Cl` [Example 391, (R)-1-(6-(5-(1-(3,5-dichloropyridin-4-yl)ethoxy)-1H-indazol-3-yl)pyridazin-3-yl)-3-(1-methyl-1H-pyrazol-5-yl)azetidin-3-amine], the figures for the IC50 in experiment [1], in experiment [2] and in experiment [3] were 0.1 to 50 nM, 50 to 200 nM and 0.1 to 50 nM, respectively. The Kd at FGFR3 (setting [4]) and at FGFR1 (setting [4]) was 1 to 50 nM in each case.
In the case of `C[C@@H](Oc1ccc2[nH]nc(-c3cnc(N4CC(N)(c5ccnn5C)C4)c(F)c3)c2c1)c1c(Cl)cncc1Cl` [Example 392, (R)-1-(5-(5-(1-(3,5-dichloropyridin-4-yl)ethoxy)-1H-indazol-3-yl)-3-fluoropyridin-2-yl)-3-(1-methyl-1H-pyrazol-5-yl)azetidin-3-amine], the IC50 in experiment [1] lay within 0.1 to 50 nM; in experiment [2], 50 to 200 nM; in experiment [3] it was 0.1 to 50 nM. Further, the Kd at FGFR3 (setting [4]) and on FGFR1 (setting [4]) was 1 to 50 nM throughout.
